We go through 16 compounds from PubChem BioAssay AID194 (DTP/NCI, 2004).

“And” between values parts separate entries of the source, which are not always exact repeats. Identical values can stand only once. Records with an inconclusive call do not appear.

This experiment deals with BDF1 mice, B16 melanoma s.c., survival/tumor T/C. Briefly: NCI In Vivo Anticancer Drug Screen. Data for tumor model B16 Melanoma (subcutaneous) in B6D2F1 (BDF1) mice. How it is done:
The antitumor activity of compounds was measured in mice bearing transplantable tumors. Survival or tumor size were measured and the results are expressed as the measurement made in the treated group (T) divided by the measurement made in the vehicle treated control group (C). The tumor model used in this assay is B16 Melanoma (subcutaneous) in B6D2F1 (BDF1) mice

[1] abbreviates: endpoint: median survival time, dose: 10.0 mg/kg/injection, schedule: Q01DX009 (ip), vehicle: saline, higher = longer survival.
The mark [2] stands for this setting: endpoint: median survival time, dose: 3.0 mg/kg/injection, schedule: Q01DX009 (ip), vehicle: saline, higher = longer survival.

On to `Cc1cc(NC(=O)NCc2ccc(N3C(N)=NC(N)=NC3(C)C)cc2)ccc1S(=O)(=O)F`, for which the T/C was 106 % of control (endpoint: median survival time, dose: 50.0 mg/kg/injection, schedule: Q04DX003 (ip), vehicle: saline, higher = longer survival) and 95 % of control (endpoint: median survival time, dose: 100.0 mg/kg/injection, schedule: Q04DX003 (ip), vehicle: saline, higher = longer survival).

For `Cn1c(CCCC(=O)O)nc2cc(N(CCCl)CCCl)ccc21`, the T/C (endpoint: median survival time, dose: 2.5 mg/kg/injection, schedule: Q01DX009 (ip), vehicle: saline, higher = longer survival) is 120 % of control; the T/C (endpoint: median survival time, dose: 5.0 mg/kg/injection, schedule: Q01DX009 (ip), vehicle: saline, higher = longer survival) is 98 % of control; the T/C under setting [1] is 96 % of control.

With `O=NN(CCCl)C(=O)NCCO`, the T/C was 102 % of control (endpoint: median survival time, dose: 2.59 mg/kg/injection, schedule: Q01DX007 (ip), vehicle: water, higher = longer survival) and 98 % of control (endpoint: median survival time, dose: 4.32 mg/kg/injection, schedule: Q01DX007 (ip), vehicle: water, higher = longer survival).

For `FC(F)(F)c1nc2nc(Cl)c(Cl)nc2[nH]1`, the T/C runs as follows: (endpoint: median survival time, dose: 4.0 mg/kg/injection, schedule: Q01DX009 (ip), vehicle: saline, higher = longer survival) 109 % of control; (endpoint: median survival time, dose: 8.0 mg/kg/injection, schedule: Q01DX009 (ip), vehicle: saline, higher = longer survival) 105 % of control; (endpoint: median survival time, dose: 16.0 mg/kg/injection, schedule: Q01DX009 (ip), vehicle: saline, higher = longer survival) 118 % of control.

With `Cc1cc2oc(=O)c3c(c2c(O)c1CN1CCN(C)CC1)CCCC3`, the T/C is 110 % of control (endpoint: median survival time, dose: 64.0 mg/kg/injection, schedule: Q01DX009 (ip), vehicle: Klucel (hydroxypropylcellulose) (HPC), higher = longer survival) and 113 % of control (endpoint: median survival time, dose: 128.0 mg/kg/injection, schedule: Q01DX009 (ip), vehicle: Klucel (hydroxypropylcellulose) (HPC), higher = longer survival).

In the case of `CC(NSc1ccccc1[N+](=O)[O-])C(=O)O` (stereo not given), the T/C (endpoint: median survival time, dose: 12.5 mg/kg/injection, schedule: Q01DX009 (ip), vehicle: saline with Tween-80, higher = longer survival) was 109 % of control; the T/C (endpoint: median survival time, dose: 25.0 mg/kg/injection, schedule: Q01DX009 (ip), vehicle: saline with Tween-80, higher = longer survival) was 106 % of control; the T/C (endpoint: median survival time, dose: 50.0 mg/kg/injection, schedule: Q01DX009 (ip), vehicle: saline with Tween-80, higher = longer survival) was 89 % of control; the T/C (endpoint: median survival time, dose: 100.0 mg/kg/injection, schedule: Q01DX009 (ip), vehicle: saline with Tween-80, higher = longer survival) is 122 % of control.

Turning to `CCCCC[C@H](O)/C=C/[C@H]1[C@H](O)CC(=O)[C@@H]1C/C=C\CCCC(=O)O`, the T/C is 98 % of control (endpoint: median survival time, dose: 0.75 mg/kg/injection, schedule: Q04DX002 (ip), vehicle: Klucel (hydroxypropylcellulose) (HPC), higher = longer survival); 118 % of control (endpoint: median survival time, dose: 3.0 mg/kg/injection, schedule: Q04DX002 (ip), vehicle: Klucel (hydroxypropylcellulose) (HPC), higher = longer survival); 122 % of control (endpoint: median survival time, dose: 6.0 mg/kg/injection, schedule: Q04DX002 (ip), vehicle: Klucel (hydroxypropylcellulose) (HPC), higher = longer survival); 87 % of control (endpoint: median survival time, dose: 12.5 mg/kg/injection, schedule: Q04DX002 (ip), vehicle: saline with Tween-80, higher = longer survival).

Regarding `O=CC(NC(=O)N(CCCl)N=O)C(O)C(O)C(O)CO` (stereo not given), the T/C under setting [2] was 115 % of control; the T/C (endpoint: median survival time, dose: 3.3 mg/kg/injection, schedule: Q01DX009 (ip), vehicle: saline, higher = longer survival) is 115 % of control; the T/C (endpoint: median survival time, dose: 4.5 mg/kg/injection, schedule: Q01DX009 (ip), vehicle: saline, higher = longer survival) is 112 % of control; the T/C (endpoint: median survival time, dose: 4.9 mg/kg/injection, schedule: Q01DX009 (ip), vehicle: saline, higher = longer survival) was 102 % of control; the T/C (endpoint: median survival time, dose: 6.8 mg/kg/injection, schedule: Q01DX009 (ip), vehicle: saline, higher = longer survival) is 89 % of control; the T/C (endpoint: median survival time, dose: 7.4 mg/kg/injection, schedule: Q01DX009 (ip), vehicle: saline, higher = longer survival) is 100 % of control. The T/C is, setting by setting: under setting [1], 122 % of control; (endpoint: median survival time, dose: 12.0 mg/kg/injection, schedule: Q04DX003 (ip), vehicle: saline, higher = longer survival) 112 % of control; (endpoint: median survival time, dose: 13.0 mg/kg/injection, schedule: Q01DX001 (ip), vehicle: saline, higher = longer survival) 118 % of control; (endpoint: median survival time, dose: 16.0 mg/kg/injection, schedule: Q01DX001 (ip), vehicle: saline, higher = longer survival) 112 % of control; (endpoint: median survival time, dose: 18.0 mg/kg/injection, schedule: Q04DX003 (ip), vehicle: saline, higher = longer survival) 106 % of control; (endpoint: median survival time, dose: 20.0 mg/kg/injection, schedule: Q01DX001 (ip), vehicle: saline, higher = longer survival) 96 % of control. Further, the T/C was 102 % of control (endpoint: median survival time, dose: 24.0 mg/kg/injection, schedule: Q01DX001 (ip), vehicle: saline, higher = longer survival); 108 % of control (endpoint: median survival time, dose: 27.0 mg/kg/injection, schedule: Q04DX003 (ip), vehicle: saline, higher = longer survival); 112 % of control (endpoint: median survival time, dose: 36.0 mg/kg/injection, schedule: Q01DX001 (ip), vehicle: saline, higher = longer survival).

For `O=NN(CCF)C(=O)NCCO`, the T/C is 98 % of control (endpoint: median survival time, dose: 3.11 mg/kg/injection, schedule: Q01DX007 (ip), vehicle: water, higher = longer survival); 112 % of control (endpoint: median survival time, dose: 5.18 mg/kg/injection, schedule: Q01DX007 (ip), vehicle: water, higher = longer survival); 123 % of control (endpoint: median survival time, dose: 8.64 mg/kg/injection, schedule: Q01DX007 (ip), vehicle: water, higher = longer survival).

For the compound `CCN(CC)CCNc1ccc(CO)c2sc3ccccc3c(=O)c12`, the T/C by setting is: (endpoint: median survival time, dose: 34.0 mg/kg/injection, schedule: Q01DX005 (ip), vehicle: water, higher = longer survival) 105 % of control; (endpoint: median tumor weight (est.), dose: 34.0 mg/kg/injection, schedule: Q01DX005 (ip), vehicle: water, higher = larger tumour) 55 % of control; (endpoint: median tumor weight (est.), dose: 50.0 mg/kg/injection, schedule: Q01DX005 (ip), vehicle: water, higher = larger tumour) 72 % of control; (endpoint: median tumor weight (est.), dose: 75.0 mg/kg/injection, schedule: Q01DX005 (ip), vehicle: water, higher = larger tumour) 28 % of control.

As to `C1CCC2[N-]CC3CCCCC3[N-]CC3CCCCC3[N-]CC3CCCCC3[N-]CC2C1.[Cu]` (stereo not given), the T/C (endpoint: median survival time, dose: 5.12 mg/kg/injection, schedule: Q01DX005 (ip), vehicle: Klucel (hydroxypropylcellulose) (HPC), higher = longer survival) was 98 % of control; the T/C (endpoint: median survival time, dose: 6.4 mg/kg/injection, schedule: Q01DX005 (ip), vehicle: Klucel (hydroxypropylcellulose) (HPC), higher = longer survival) is 95 % of control and 96 % of control and 102 % of control; the T/C (endpoint: median survival time, dose: 8.0 mg/kg/injection, schedule: Q01DX001 (ip), vehicle: Klucel (hydroxypropylcellulose) (HPC), higher = longer survival) was 93 % of control and 95 % of control and 106 % of control; the T/C (endpoint: median survival time, dose: 8.0 mg/kg/injection, schedule: Q01DX005 (ip), vehicle: Klucel (hydroxypropylcellulose) (HPC), higher = longer survival) was 96 % of control and 97 % of control and 98 % of control; the T/C (endpoint: median survival time, dose: 10.0 mg/kg/injection, schedule: Q01DX001 (ip), vehicle: Klucel (hydroxypropylcellulose) (HPC), higher = longer survival) is 95 % of control and 107 % of control and 109 % of control; the T/C (endpoint: median survival time, dose: 12.5 mg/kg/injection, schedule: Q01DX001 (ip), vehicle: Klucel (hydroxypropylcellulose) (HPC), higher = longer survival) was 93 % of control and 94 % of control and 119 % of control.

`CCC(c1ccc(OC(=O)Cc2ccc(N(CCCl)CCCl)cc2)cc1)C(CC)c1ccc(OC(=O)Cc2ccc(N(CCCl)CCCl)cc2)cc1` (stereo not given): the T/C is 102 % of control (endpoint: median survival time, dose: 80.0 mg/kg/injection, schedule: Q01DX009 (ip), vehicle: saline with Tween-80, higher = longer survival); 106 % of control (endpoint: median survival time, dose: 120.0 mg/kg/injection, schedule: Q01DX009 (ip), vehicle: saline with Tween-80, higher = longer survival); 93 % of control (endpoint: median survival time, dose: 180.0 mg/kg/injection, schedule: Q01DX009 (ip), vehicle: saline with Tween-80, higher = longer survival); 102 % of control (endpoint: median survival time, dose: 270.0 mg/kg/injection, schedule: Q01DX009 (ip), vehicle: saline with Tween-80, higher = longer survival); 90 % of control (endpoint: median survival time, dose: 405.0 mg/kg/injection, schedule: Q01DX009 (ip), vehicle: saline with Tween-80, higher = longer survival).

`COc1ccc(CCN2C(=O)CSC2=S)cc1OC`: the T/C by setting is: (endpoint: median survival time, dose: 25.0 mg/kg/injection, schedule: Q01DX009 (ip), vehicle: Klucel (hydroxypropylcellulose) (HPC), higher = longer survival) 120 % of control; (endpoint: median survival time, dose: 50.0 mg/kg/injection, schedule: Q01DX009 (ip), vehicle: Klucel (hydroxypropylcellulose) (HPC), higher = longer survival) 123 % of control; (endpoint: median survival time, dose: 100.0 mg/kg/injection, schedule: Q01DX009 (ip), vehicle: Klucel (hydroxypropylcellulose) (HPC), higher = longer survival) 116 % of control.

Regarding `COC1=C2C[C@@H](C)C[C@@H](OC)[C@@H](O)[C@H](C)/C=C(\C)[C@@H](OC(N)=O)[C@H](OC)/C=C\C=C(/C)C(=O)NC(=CC1=O)C2=O`, the T/C (endpoint: median survival time, dose: 0.5 mg/kg/injection, schedule: Q01DX005 (ip), vehicle: water, higher = longer survival) was 118 % of control and the T/C (endpoint: median survival time, dose: 1.0 mg/kg/injection, schedule: Q01DX005 (ip), vehicle: water, higher = longer survival) is 105 % of control.

As to `Nc1ccc(N(CCCl)CCN(CCCl)c2ccc(N)cc2)cc1`, the T/C is 124 % of control (endpoint: median survival time, dose: 0.36 mg/kg/injection, schedule: Q01DX009 (ip), vehicle: saline, higher = longer survival); 114 % of control (endpoint: median survival time, dose: 0.75 mg/kg/injection, schedule: Q01DX009 (ip), vehicle: saline, higher = longer survival); 103 % of control (endpoint: median survival time, dose: 1.5 mg/kg/injection, schedule: Q01DX009 (ip), vehicle: saline, higher = longer survival); 98 % of control under setting [2].

Take `CC(=O)Oc1ccccc1C(=O)O`: the T/C reads like this: (endpoint: median survival time, dose: 32.0 mg/kg/injection, schedule: Q01DX009 (ip), vehicle: saline, higher = longer survival) 95 % of control; (endpoint: median survival time, dose: 64.0 mg/kg/injection, schedule: Q01DX009 (ip), vehicle: saline, higher = longer survival) 88 % of control; (endpoint: median survival time, dose: 256.0 mg/kg/injection, schedule: Q01DX009 (ip), vehicle: saline, higher = longer survival) 116 % of control.
